Values quoted from earlier work, collected in patent EP3646858A1, “ENCAPSULATED FORMULATIONS” (Pharmalink, SL, priority 2017, dated 2019).

Settings: association with piperine; inhibition of hepatic and intestinal glucuronidation

increase of the bioavailability of curcumin: 20 fold
Compound: COc1cc(/C=C/C(=O)CC(=O)/C=C/c2ccc(O)c(OC)c2)ccc1O [curcumin]
